{
  "source": "patent US10745452B2",
  "about": "“Combination of antimicrobial peptides and antibiotic drugs for treating diseases” (OMNIX MEDICAL LTD., priority 2016, dated 2020)",
  "assay_type_in_all_cases": "cell-based",
  "key": {"[1]": {"tested_on": "Salmonella serotype Typhimurium (ATCC 700408)", "assay": "microbe, parasite or virus in culture", "conditions": "for MIC: Salmonella; for bacterial growth (OD600), combination: simultaneously; for bacterial growth (OD600), combination / bacterial growth (OD600), stand-alone treatment: 17-20 h"}, "[2]": {"tested_on": "Salmonella serotype Typhimurium (ATCC 700408)", "assay": "microbe, parasite or virus in culture", "conditions": "for MIC: Salmonella; for bacterial growth (OD600), combination: simultaneously; for bacterial growth (OD600), combination / bacterial growth (OD600), stand-alone treatment: 17-20 h", "protocol": "FIG. 1 presents: Salmonella serotype Typhimurium (ATCC 700408), a Multi-Drug Resistant (MDR) strain of bacteria were cultured in the presence of either OMN6 or Kanamycin KAN. […] The bacteria were incubated for 17-20 hours and the growth of the bacteria was continuously monitored via spectrophotometry at 600 nm (OD600). As bacterial growth progresses, OD600 values rise, and where the growth is inhibited OD600 values remain constant.\n(§1) The bacteria were incubated for 17-20 hours and the growth of the bacteria was continuously monitored via spectrophotometry at 600 nm (OD600). As bacterial growth progresses, OD600 values rise, and where the growth is inhibited OD600 values remain constant.\nFIG. 3A presents: Salmonella serotype Typhimurium (ATCC 700408), a Multi-Drug Resistant (MDR) strain of bacteria were cultured in the presence of OMN6 or AMP.", "remark": "listed apart in the source"}, "[3]": {"tested_on": "Pseudomonas aeruginosa (ATCC BAA-2110)", "assay": "Growth of MDR bacteria monitored by OD600 under peptide, antibiotic or co-treatment", "conditions": "FIG. 3B; for bacterial growth (OD600), combination: OMN6 32 μg/ml together with AMP 64 μg/ml, simultaneously; for bacterial growth (OD600), combination / bacterial growth (OD600), stand-alone treatment: 17-20 h", "protocol": "FIG. 3B presents: Pseudomonas aeruginosa (ATCC BAA-2110), a Multi-Drug Resistant (MDR) strain of bacteria were cultured in the presence of either OMN6 or AMP. The bacteria were introduced into solutions of OMN6 (32 μg/ml) and AMP (64 μg/ml) at concentrations that were previously shown to be non-effective when added alone. […] The bacteria were then cultured in the presence of a co-treatment with a combination of OMN6 and AMP, and administered simultaneously, in the same non-effective concentrations described above.\nas §1"}, "[4]": {"tested_on": "Pseudomonas aeruginosa (ATCC BAA-2110)", "assay": "Growth of MDR bacteria monitored by OD600 under peptide, antibiotic or co-treatment", "conditions": "AMP alone 128 μg/ml; 17-20 h; FIG. 3B"}, "[5]": {"conditions": "OMN6 32 μg/ml together with AMP 128 μg/ml, FIG. 3A"}},
  "note": "“Also recorded” adds a separate entry of the source. Like-named read-outs stand apart in the source and are kept apart here. Ends that are not written are not given here. Peptide text beside a SMILES is read from it.",
  "data": [
    {"molecule": "C[C@@H](O)[C@H]1C(=O)N2C(C(=O)O)=C(SCCN=CN)C[C@H]12", "note": "[IPM, Imipenem, reference compound]", "values": [
      {"measurement": "MIC", "setting": "[1]; read-out: Minimal Inhibitory Concentration (MIC) of co-treatment, IPM part", "value": 32, "unit": "µg/mL"}
    ]},
    {"molecule": "NC[C@H]1O[C@H](O[C@H]2[C@H](O)[C@@H](O[C@H]3O[C@H](CO)[C@@H](O)[C@H](N)[C@H]3O)[C@H](N)C[C@@H]2N)[C@H](O)[C@@H](O)[C@@H]1O", "note": "[KAN, Kanamycin, reference compound]", "values": [
      {"measurement": "MIC", "setting": "[2]; in co-treatment with OMN6 217 μg/ml, FIG. 1, read-out: Minimal Inhibitory Concentration (MIC) of co-treatment, KAN part", "value": 3.75, "unit": "µg/mL"}
    ]},
    {"molecule": "OMN6: modified H. cecropia Cecropin A peptide, MCKWKLFKKIEKVGQNIRDGIIKAGPAVAVVGQATQIAKC (ends and bridges not checked; cysteine pairing not given here)", "values": [
      {"measurement": "bacterial growth (OD600), combination", "setting": "[1]; OMN6 32 μg/ml together with TET 16 μg/ml, FIG. 4", "value": "complete and long-lasting antimicrobial effect; also recorded: powerful antimicrobial effect"},
      {"measurement": "bacterial growth (OD600), stand-alone treatment", "setting": "[1]; OMN6 alone 217 μg/ml, FIG. 1", "value": "did not inhibit bacterial growth and did not lead to bacterial death; also recorded: did not inhibit bacterial growth effectively"},
      {"measurement": "bacterial growth (OD600), combination", "setting": "[3]", "value": "complete and long-lasting antimicrobial effect; also recorded: powerful antimicrobial effect"},
      {"measurement": "bacterial growth (OD600), stand-alone treatment", "setting": "[3]; OMN6 alone 32 μg/ml", "value": "did not inhibit bacterial growth and did not lead to bacterial death; also recorded: did not inhibit bacterial growth effectively"},
      {"measurement": "Minimal Inhibitory Concentration (MIC) of co-treatment, OMN6 part", "setting": "[3]; in co-treatment with AMP 64 μg/ml", "value": 32, "unit": "µg/mL"},
      {"measurement": "bacterial growth (OD600), combination", "setting": "[2]; [5]", "value": "complete and long-lasting antimicrobial effect; also recorded: powerful antimicrobial effect"},
      {"measurement": "bacterial growth (OD600), combination", "setting": "[2]; OMN6 217 μg/ml together with KAN 3.75 μg/ml, FIG. 1", "value": "complete and long-lasting antimicrobial effect; also recorded: powerful antimicrobial effect"},
      {"measurement": "bacterial growth (OD600), stand-alone treatment", "setting": "[2]; OMN6 alone 32 μg/ml, FIG. 3A", "value": "did not inhibit bacterial growth and did not lead to bacterial death; also recorded: did not inhibit bacterial growth effectively"},
      {"measurement": "bacterial growth (OD600), stand-alone treatment", "setting": "[2]; OMN6 alone 32 μg/ml, FIG. 4", "value": "did not inhibit bacterial growth and did not lead to bacterial death; also recorded: did not inhibit bacterial growth effectively"},
      {"measurement": "Minimal Inhibitory Concentration (MIC) of co-treatment, OMN6 part", "setting": "[2]; in co-treatment with AMP 128 μg/ml, FIG. 3A", "value": 32, "unit": "µg/mL"},
      {"measurement": "Minimal Inhibitory Concentration (MIC) of co-treatment, OMN6 part", "setting": "[2]; in co-treatment with KAN 3.75 μg/ml, FIG. 1", "value": 217, "unit": "µg/mL"}
    ]},
    {"molecule": "CC[C@H](C)[C@H](NC(=O)CNC(=O)[C@H](CCC(=O)O)NC(=O)[C@H](CO)NC(=O)[C@@H](NC(=O)[C@H](CCCNC(=N)N)NC(=O)[C@H](CCCCN)NC(=O)[C@H](CCCCN)NC(=O)[C@H](C)NC(=O)[C@H](CO)NC(=O)[C@H](CC(N)=O)NC(=O)[C@H](CCC(=O)O)NC(=O)[C@H](CC(C)C)NC(=O)[C@H](CCCCN)NC(=O)[C@H](CCCCN)NC(=O)[C@H](C)NC(=O)[C@@H](NC(=O)[C@H](CCCCN)NC(=O)[C@H](CO)NC(=O)[C@H](CC(C)C)NC(=O)[C@H](Cc1c[nH]c2ccccc12)NC(=O)[C@H](CO)NC(=O)[C@H](CS)NC(=O)[C@@H](N)CCSC)[C@@H](C)O)[C@@H](C)CC)C(=O)N[C@@H](C)C(=O)N[C@H](C(=O)N[C@@H](C)C(=O)N[C@H](C(=O)N[C@@H](CCC(N)=O)C(=O)NCC(=O)NCC(=O)N1CCC[C@H]1C(=O)N[C@@H](CCCNC(=N)N)C(=O)N[C@@H](CS)C(=O)O)[C@@H](C)CC)[C@@H](C)CC", "note": "[OMN11] (H-MCSWLSKTAKKLENSAKKRISEGIAIAIQGGPRC-OH; N-terminus and C-terminus assumed)", "values": [
      {"measurement": "bacterial growth (OD600), combination", "setting": "[1]; OMN11 304 μg/ml together with IPM 32 μg/ml, FIG. 2", "value": "complete and long-lasting antimicrobial effect; also recorded: powerful antimicrobial effect"},
      {"measurement": "bacterial growth (OD600), stand-alone treatment", "setting": "[1]; OMN11 alone 304 μg/ml, FIG. 2", "value": "did not inhibit bacterial growth and did not lead to bacterial death; also recorded: did not inhibit bacterial growth effectively"}
    ]},
    {"molecule": "CC1(C)S[C@@H]2[C@H](NC(=O)[C@H](N)c3ccccc3)C(=O)N2[C@H]1C(=O)O", "note": "[AMP, Ampicillin, reference compound]", "values": [
      {"measurement": "bacterial growth (OD600), stand-alone treatment", "setting": "[4]", "value": "did not inhibit bacterial growth effectively"},
      {"measurement": "bacterial growth (OD600), stand-alone treatment", "setting": "[3]; AMP alone 64 μg/ml", "value": "did not inhibit bacterial growth and did not lead to bacterial death"},
      {"measurement": "bacterial growth (OD600), combination", "setting": "[3]", "value": "complete and long-lasting antimicrobial effect; also recorded: powerful antimicrobial effect"},
      {"measurement": "MIC", "setting": "[3]; Pseudomonas aeruginosa, ATCCBAA2110, in co-treatment with OMN6 32 μg/ml, read-out: Minimal Inhibitory Concentration (MIC) of co-treatment, AMP part", "value": 64, "unit": "µg/mL"},
      {"measurement": "bacterial growth (OD600), stand-alone treatment", "setting": "[2]; AMP alone 128 μg/ml, FIG. 3A", "value": "did not inhibit bacterial growth and did not lead to bacterial death; also recorded: did not inhibit bacterial growth effectively"},
      {"measurement": "bacterial growth (OD600), combination", "setting": "[2]; [5]", "value": "complete and long-lasting antimicrobial effect; also recorded: powerful antimicrobial effect"},
      {"measurement": "MIC", "setting": "[2]; read-out: Minimal Inhibitory Concentration (MIC) of co-treatment, AMP part", "value": 128, "unit": "µg/mL"}
    ]},
    {"molecule": "CN(C)[C@@H]1C(O)=C(C(N)=O)C(=O)[C@@]2(O)C(O)=C3C(=O)c4c(O)cccc4[C@@](C)(O)[C@H]3C[C@@H]12", "note": "[TET, Tetracycline, reference compound]", "values": [
      {"measurement": "MIC", "setting": "[1]; in co-treatment with OMN6 32 μg/ml, FIG. 4, read-out: Minimal Inhibitory Concentration (MIC) of co-treatment, TET part", "value": 162, "unit": "µg/mL"}
    ]}
  ]
}
